From PubChem BioAssay (NCI) come the findings set out here.

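48-hour exposure; five concentrations; linearly interpolated endpoints. Abbreviation: GI50, concentration required for 50% inhibition of growth. TGI: concentration producing complete growth inhibition.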

Among the test systems are A498 renal; MALME-3M melanoma; NCI-H226 lung; NCI-H460 lung; OVCAR-5 ovarian; RXF 393 renal.
Holding throughout (assay): NCI-60 cell line screen, 48 h

On to `CN(C(=O)C12C3C4C1C1C2C3C41C(N)=O)C(C)(C)C` (centres undefined), for which the TGI with A498 renal, in the assay with MALME-3M melanoma, in the assay on NCI-H226 lung, with NCI-H460 lung and in the assay on OVCAR-5 ovarian was more than 100 µM each time.

Regarding `COc1c(O)c2c3c(cc(C)cc3c1C(C)C)OC2`, the TGI in the assay with MALME-3M melanoma, with NCI-H226 lung, in the assay with NCI-H460 lung, with OVCAR-5 ovarian and in the assay with RXF 393 renal was more than 100 µM in each case.

For `CCCCCCC[CH2][Sn]([CH2]CCCCCCC)([O]c1cccc2cccnc12)[O]c1cccc2cccnc12`, the GI50 in the assay with A498 renal was 2.62 µM; with MALME-3M melanoma, 1.44 µM; in the assay on NCI-H226 lung it was 2.24 µM; in the assay on NCI-H460 lung, 3.12 µM; with OVCAR-5 ovarian, 3.02 µM; with RXF 393 renal, 2.06 µM. The TGI in the assay on A498 renal is 5.85 µM; in the assay on MALME-3M melanoma it was 2.9 µM; with NCI-H226 lung, 5.53 µM; in the assay with NCI-H460 lung, 10.7 µM; in the assay on OVCAR-5 ovarian it was 8.21 µM; with RXF 393 renal, 8.07 µM.

As for `O=C1CCCCC1S(=O)(=O)c1ccccc1` (centres undefined), the TGI in the assay with A498 renal, in the assay with MALME-3M melanoma, in the assay with NCI-H226 lung, with NCI-H460 lung, in the assay with OVCAR-5 ovarian and in the assay on RXF 393 renal was more than 100 µM in each case.

Turning to `c1cncc(C2N3CCCCC3[C@@H]3c4[nH]c5ccccc5c4CCN23)c1` (some centres undefined), the TGI in the assay on A498 renal, with NCI-H460 lung, in the assay on OVCAR-5 ovarian and with RXF 393 renal was more than 100 µM in each case.

In the case of `COc1cc2ccnc3c2c(c1OC)-c1coc(SC)c1-3`, the TGI was more than 100 µM with A498 renal; more than 100 µM with MALME-3M melanoma; more than 100 µM in the assay with NCI-H460 lung; more than 100 µM in the assay on OVCAR-5 ovarian; 52.1 µM in the assay on RXF 393 renal.

On to `C=C/C=C/NC(=O)OCc1ccccc1`, for which the TGI in the assay on NCI-H460 lung, in the assay with OVCAR-5 ovarian and in the assay on RXF 393 renal was more than 100 µM throughout.

Regarding `CC(=O)Nc1ccc(S(=O)(=O)N/N=C/CN2C(=O)c3ccccc3C2=O)cc1`, the TGI with A498 renal, with MALME-3M melanoma, with NCI-H226 lung, in the assay on NCI-H460 lung and in the assay with RXF 393 renal was more than 100 µM throughout.

On to `CCOC(C[C@H](O[Si](C)(C)C(C)(C)C)[C@H]1COC(=S)S1)OCC`, for which the TGI in the assay on MALME-3M melanoma, in the assay with NCI-H226 lung and with NCI-H460 lung was more than 100 µM throughout.

For `CCOC(=O)CC[C@H](NC(=O)c1nc[nH]c1[N+](=O)[O-])C(=O)OCC`, the TGI with A498 renal, in the assay with MALME-3M melanoma, in the assay with NCI-H226 lung, with NCI-H460 lung and in the assay on RXF 393 renal was more than 100 µM throughout.

Regarding `O=C(O)CC[C@H](NC(=O)c1ccc(-n2nc3ccc(O)cc3nc2=O)cc1)C(=O)O`, the TGI in the assay on A498 renal, with MALME-3M melanoma, with NCI-H460 lung, in the assay with OVCAR-5 ovarian and in the assay with RXF 393 renal was more than 100 µM in each case.

For `CCOC(=O)/C(C1=NCCN1)=C(\O)c1ccccc1`, the TGI in the assay on MALME-3M melanoma, in the assay with NCI-H226 lung, with NCI-H460 lung, in the assay with OVCAR-5 ovarian and with RXF 393 renal was more than 100 µM throughout.

Take `OC1(C23CC4CC(CC(C4)C2)C3)CSCC1(O)C12CC3CC(CC(C3)C1)C2` (centres undefined): the TGI in the assay with MALME-3M melanoma and in the assay on NCI-H226 lung was more than 100 µM throughout.

As for `Cc1ccc2c(c1)-c1c3c(nn1-c1ccccc1)-c1ccccc1SC3O2` (centres undefined), the TGI in the assay on A498 renal, in the assay on MALME-3M melanoma, in the assay with NCI-H460 lung, in the assay with OVCAR-5 ovarian and in the assay with RXF 393 renal was more than 100 µM each time.

On to `COc1ccc2c(c1)C(=O)c1ccc(OC)cc1C2=S`, for which the TGI in the assay on A498 renal, in the assay on MALME-3M melanoma, in the assay on NCI-H226 lung, in the assay on OVCAR-5 ovarian and in the assay on RXF 393 renal was more than 100 µM throughout.

For the compound `CCCCCCCCCCCCCCCC(=O)OCC1OC(n2cc(F)c(=O)[nH]c2=O)C(N)C(O)C1O` (centres undefined), the TGI is 61.3 µM with A498 renal, 38.2 µM with MALME-3M melanoma, 35.9 µM in the assay with NCI-H226 lung and 58.8 µM in the assay with OVCAR-5 ovarian.

Turning to `CC(CN(C)C)/C(=N\Nc1ccccc1)c1ccccc1` (centres undefined), the TGI in the assay with A498 renal is more than 100 µM; with MALME-3M melanoma it was 29.1 µM; in the assay on NCI-H460 lung, 15.5 µM; with OVCAR-5 ovarian, 5.45 µM; with RXF 393 renal, 65.4 µM.

With `O=S(=O)(/C=C/c1ccc(F)cc1)Cc1ccc(CS(=O)(=O)/C=C/c2ccc(F)cc2)cc1`, the TGI in the assay on MALME-3M melanoma, with NCI-H226 lung, with NCI-H460 lung, with OVCAR-5 ovarian and with RXF 393 renal was more than 100 µM throughout.

Take `N/N=C(/C(=O)Nc1cccc(Cl)c1)C(C(=O)c1ccc(O)cc1O)C1OC(=O)c2ccccc21` (centres undefined): the TGI in the assay on A498 renal, with MALME-3M melanoma, in the assay with NCI-H226 lung, with NCI-H460 lung and in the assay on OVCAR-5 ovarian was more than 100 µM each time.
